Data from the supplement of paper PMC6045584.
± gives the standard deviation of the averaged measurements.

What follows are test systems tested with NC1(c2ccc(-c3nc4ccn5c(=O)[nH]nc5c4cc3-c3ccccc3)cc2)CCC1 [MK2206] (assay: surviving fraction relative to DMSO-only wells; higher = less growth inhibition). Conditions: 0.5 nM; exposure time: 5 days.
In short: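 After seeding at 250–500 cells per well in 384-well plates and a 24-hour wait, log-phase tumour cell lines were exposed without interruption for five days to inhibitors at 0.5, 1, 5, 10, 50, 100, 500 and 1000 nM. CellTiter-Glo luminescence was recorded after 10 minutes at room temperature. Viability is reported as surviving fraction, the luminescence normalised to the median of DMSO-only wells.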

| Test System | surviving fraction |
| --- | --- |
| 22RV1 PROSTATE | 1.04 ± 0.045 |
| 93VU HEADNECK | 1.06 ± 0.076 |
| 143B BONE | 0.912 ± 0.012 |
| A549 LUNG | 1.05 ± 0.023 |
| ASKA SYNOVIAL | 0.991 ± 0.089 |
| BT20 BREAST | 1.14 ± 0.045 |
| BT549 BREAST | 1.07 ± 0.092 |
| CADOES1 SOFT TISSUE | 1.02 ± 0.12 |
| CAL51 BREAST | 0.986 ± 0.05 |
| CAL120 BREAST | 0.976 ± 0.071 |
| CASKI CERVIX | 0.905 ± 0.04 |
| CHLA90 AUTONOMIC GANGLIA | 1.04 ± 0.058 |
| CME SYNOVIAL | 1.25 ± 0.18 |
| COLO320DM LARGE INTESTINE | 0.985 ± 0.038 |
| DU4475 BREAST | 1.07 ± 0.035 |
| H23 LUNG | 0.95 ± 0.072 |
| HCC38 BREAST | 1.36 ± 0.11 |
| HCC70 BREAST | 1.03 ± 0.063 |
| HCC78 LUNG | 0.785 ± 0.17 |
| HCC202 BREAST | 1.07 ± 0.091 |
| HCC1806 BREAST | 1.02 ± 0.074 |

| Test System | surviving fraction |
| --- | --- |
| HCC1954 BREAST | 1.06 ± 0.16 |
| HCT15 LARGE INTESTINE | 1.04 ± 0.042 |
| HELA CERVIX | 1.03 ± 0.037 |
| HMLE3 BREAST | 1.06 ± 0.11 |
| HMT3552 BREAST | 1.05 ± 0.029 |
| HOS BONE | 1.02 ± 0.013 |
| HOSMNG BONE | 0.865 ± 0.1 |
| HS57T BREAST | 0.979 ± 0.037 |
| HS578T BREAST | 1.06 ± 0.17 |
| HSSYII SYNOVIAL | 0.937 ± 0.019 |
| HT1080 SOFT TISSUE | 1.04 ± 0.028 |
| HU09 BONE | 0.85 ± 0.065 |
| JIMT1 BREAST | 0.965 ± 0.025 |
| JURKAT HAEMATOPOIETIC AND LYMPHOID TISSUE | 1 ± 0.013 |
| KPD BONE | 1 ± 0.043 |
| LM7 BONE | 0.991 ± 0.019 |
| MCF7 BREAST | 0.947 ± 0.046 |
| MDAMB134 BREAST | 1 ± 0.079 |
| MDAMB157 BREAST | 0.952 ± 0.052 |
| MDAMB231 BREAST | 0.954 ± 0.019 |

Same assay, conditions: 1 nM; exposure time: 5 days

| Test System | surviving fraction |
| --- | --- |
| 22RV1 PROSTATE | 0.987 ± 0.09 |
| 93VU HEADNECK | 1.07 ± 0.14 |
| 143B BONE | 0.969 ± 0.042 |
| A549 LUNG | 1.1 ± 0.028 |
| ASKA SYNOVIAL | 1.06 ± 0.014 |
| BT20 BREAST | 1.15 ± 0.07 |
| BT549 BREAST | 1.06 ± 0.048 |
| CADOES1 SOFT TISSUE | 0.925 ± 0.099 |
| CAL51 BREAST | 1.09 ± 0.079 |
| CAL120 BREAST | 0.977 ± 0.062 |
| CASKI CERVIX | 0.97 ± 0.055 |
| CHLA90 AUTONOMIC GANGLIA | 1.01 ± 0.037 |
| CME SYNOVIAL | 1.22 ± 0.043 |
| COLO320DM LARGE INTESTINE | 1.12 ± 0.11 |
| DU4475 BREAST | 1.08 ± 0.094 |
| H23 LUNG | 1.04 ± 0.015 |
| HCC38 BREAST | 1.33 ± 0.26 |
| HCC70 BREAST | 1.1 ± 0.08 |
| HCC78 LUNG | 0.975 ± 0.05 |
| HCC202 BREAST | 1.08 ± 0.12 |
| HCC1806 BREAST | 1.1 ± 0.021 |

| Test System | surviving fraction |
| --- | --- |
| HCC1954 BREAST | 0.988 ± 0.088 |
| HCT15 LARGE INTESTINE | 1.07 ± 0.048 |
| HELA CERVIX | 1.15 ± 0.043 |
| HMLE3 BREAST | 1.13 ± 0.047 |
| HMT3552 BREAST | 1.05 ± 0.02 |
| HOS BONE | 1.03 ± 0.026 |
| HOSMNG BONE | 0.936 ± 0.1 |
| HS57T BREAST | 1 ± 0.07 |
| HS578T BREAST | 1 ± 0.084 |
| HSSYII SYNOVIAL | 0.9935 ± 0.0096 |
| HT1080 SOFT TISSUE | 1.02 ± 0.018 |
| HU09 BONE | 0.971 ± 0.0053 |
| JIMT1 BREAST | 0.996 ± 0.017 |
| JURKAT HAEMATOPOIETIC AND LYMPHOID TISSUE | 1.03 ± 0.03 |
| KPD BONE | 0.979 ± 0.031 |
| LM7 BONE | 0.998 ± 0.043 |
| MCF7 BREAST | 0.942 ± 0.052 |
| MDAMB134 BREAST | 0.89 ± 0.29 |
| MDAMB157 BREAST | 0.999 ± 0.02 |
| MDAMB231 BREAST | 1.006 ± 0.0089 |

Same assay, conditions: 5 nM; exposure time: 5 days

| Test System | surviving fraction |
| --- | --- |
| 22RV1 PROSTATE | 0.87 ± 0.09 |
| 93VU HEADNECK | 1.1 ± 0.093 |
| 143B BONE | 0.974 ± 0.082 |
| A549 LUNG | 1.06 ± 0.037 |
| ASKA SYNOVIAL | 1 ± 0.04 |
| BT20 BREAST | 1.05 ± 0.034 |
| BT549 BREAST | 0.982 ± 0.15 |
| CADOES1 SOFT TISSUE | 0.915 ± 0.097 |
| CAL51 BREAST | 1.06 ± 0.031 |
| CAL120 BREAST | 0.991 ± 0.068 |
| CASKI CERVIX | 0.951 ± 0.065 |
| CHLA90 AUTONOMIC GANGLIA | 0.944 ± 0.013 |
| CME SYNOVIAL | 1.35 ± 0.13 |
| COLO320DM LARGE INTESTINE | 1.11 ± 0.052 |
| DU4475 BREAST | 0.989 ± 0.11 |
| H23 LUNG | 1.017 ± 0.008 |
| HCC38 BREAST | 1.36 ± 0.073 |
| HCC70 BREAST | 1.13 ± 0.11 |
| HCC78 LUNG | 1.12 ± 0.2 |
| HCC202 BREAST | 1.2 ± 0.16 |
| HCC1806 BREAST | 1.15 ± 0.19 |

| Test System | surviving fraction |
| --- | --- |
| HCC1954 BREAST | 1.14 ± 0.14 |
| HCT15 LARGE INTESTINE | 1.08 ± 0.052 |
| HELA CERVIX | 1.12 ± 0.073 |
| HMLE3 BREAST | 1.08 ± 0.01 |
| HMT3552 BREAST | 1.1 ± 0.03 |
| HOS BONE | 1.03 ± 0.0087 |
| HOSMNG BONE | 0.907 ± 0.082 |
| HS57T BREAST | 1.02 ± 0.051 |
| HS578T BREAST | 1.02 ± 0.087 |
| HSSYII SYNOVIAL | 0.93 ± 0.042 |
| HT1080 SOFT TISSUE | 1.04 ± 0.018 |
| HU09 BONE | 0.991 ± 0.18 |
| JIMT1 BREAST | 0.999 ± 0.049 |
| JURKAT HAEMATOPOIETIC AND LYMPHOID TISSUE | 0.92 ± 0.016 |
| KPD BONE | 0.944 ± 0.075 |
| LM7 BONE | 1.04 ± 0.046 |
| MCF7 BREAST | 0.933 ± 0.044 |
| MDAMB134 BREAST | 0.921 ± 0.0014 |
| MDAMB157 BREAST | 1.06 ± 0.026 |
| MDAMB231 BREAST | 0.976 ± 0.021 |

Same assay, conditions: 10 nM; exposure time: 5 days

| Test System | surviving fraction |
| --- | --- |
| 22RV1 PROSTATE | 0.921 ± 0.17 |
| 93VU HEADNECK | 1.15 ± 0.048 |
| 143B BONE | 1.1 ± 0.1 |
| A549 LUNG | 1.081 ± 0.0074 |
| ASKA SYNOVIAL | 1.02 ± 0.16 |
| BT20 BREAST | 1.01 ± 0.078 |
| BT549 BREAST | 1.06 ± 0.07 |
| CADOES1 SOFT TISSUE | 0.926 ± 0.036 |
| CAL51 BREAST | 1.02 ± 0.035 |
| CAL120 BREAST | 1.01 ± 0.06 |
| CASKI CERVIX | 0.88 ± 0.011 |
| CHLA90 AUTONOMIC GANGLIA | 0.929 ± 0.025 |
| CME SYNOVIAL | 1.35 ± 0.099 |
| COLO320DM LARGE INTESTINE | 1.08 ± 0.066 |
| DU4475 BREAST | 1 ± 0.015 |
| H23 LUNG | 1.03 ± 0.053 |
| HCC38 BREAST | 1.32 ± 0.12 |
| HCC70 BREAST | 1.1 ± 0.12 |
| HCC78 LUNG | 0.998 ± 0.21 |
| HCC202 BREAST | 1.2 ± 0.074 |
| HCC1806 BREAST | 1.14 ± 0.05 |

| Test System | surviving fraction |
| --- | --- |
| HCC1954 BREAST | 1.18 ± 0.13 |
| HCT15 LARGE INTESTINE | 1.07 ± 0.064 |
| HELA CERVIX | 1.09 ± 0.12 |
| HMLE3 BREAST | 1.09 ± 0.044 |
| HMT3552 BREAST | 1.02 ± 0.033 |
| HOS BONE | 1.05 ± 0.038 |
| HOSMNG BONE | 0.846 ± 0.1 |
| HS57T BREAST | 1.07 ± 0.056 |
| HS578T BREAST | 1.04 ± 0.15 |
| HSSYII SYNOVIAL | 0.984 ± 0.043 |
| HT1080 SOFT TISSUE | 1.06 ± 0.043 |
| HU09 BONE | 1.06 ± 0.094 |
| JIMT1 BREAST | 1.02 ± 0.01 |
| JURKAT HAEMATOPOIETIC AND LYMPHOID TISSUE | 0.987 ± 0.022 |
| KPD BONE | 0.931 ± 0.047 |
| LM7 BONE | 1.03 ± 0.055 |
| MCF7 BREAST | 0.916 ± 0.034 |
| MDAMB134 BREAST | 0.891 ± 0.14 |
| MDAMB157 BREAST | 0.963 ± 0.081 |
| MDAMB231 BREAST | 0.972 ± 0.024 |
